# Key:
# CXCR2 receptor = CXCR2 receptor (Homo sapiens (Human), UniProt P25025); test: β-arrestin 2 recruitment test, PathHunter HEK293-CXCR2 cells stimulated with CXCL8; format: cell-based; conditions: CXCL8 stimulation
# Protocol: (§1) The in vitro affinity of the compounds of the present invention for the CXCR1 and CXCR2 receptors was determined on a functional test of the β-arrestin recruitment type after receptor activation.
# (§2) β-Arrestin Recruitment Assay:
# (§3) “PathHunter HEK293-CXCR2” or “U2OS hCXCR1 β-arrestin” cells (DiscoveRx Corporation) were seeded overnight at 10 000 cells/well (384-well format) in 20 μl of Opti MEM I medium. A preincubation with the antagonist or the vehicle for 30 min at 37° C. and 5% CO2 was followed by 60 minutes of stimulation with CXCL8 at 37° C. and 5% CO2. The cells were then placed at ambient temperature for 30 minutes. The PathHunter detection reagent (DiscoveRx Corporation) was added. […] The data were analyzed by means of a non-linear curve procedure using the XLFit4 exploitation software (IDBS) and the IC50 values were determined.
# CXCR1 receptor = CXCR1 receptor (Homo sapiens (Human), UniProt P25024); test: β-arrestin 2 recruitment test, U2OS hCXCR1 β-arrestin cells stimulated with CXCL8; format: cell-based; conditions: CXCL8 stimulation
# Chain of CXCR1 receptor (P25024 whole entry): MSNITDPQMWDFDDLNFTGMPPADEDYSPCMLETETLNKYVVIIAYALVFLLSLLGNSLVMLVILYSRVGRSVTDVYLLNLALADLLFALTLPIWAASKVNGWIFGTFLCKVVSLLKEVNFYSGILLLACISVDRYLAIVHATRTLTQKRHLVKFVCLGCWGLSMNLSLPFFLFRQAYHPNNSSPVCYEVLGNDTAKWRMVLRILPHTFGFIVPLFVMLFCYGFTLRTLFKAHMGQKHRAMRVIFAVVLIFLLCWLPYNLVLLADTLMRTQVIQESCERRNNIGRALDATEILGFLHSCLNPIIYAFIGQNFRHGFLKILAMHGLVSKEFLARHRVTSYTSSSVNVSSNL
# Protocol: as §1, §2, §3
# CCR4 = CCR4 (Homo sapiens (Human), UniProt P51679); test: Receptor profiling: calcium flux (FLIPR TETRA) on Chem-1 cells expressing chemokine receptor; format: cell-based; design: key to IC50 CCR4: IA: Inactive; conditions: antagonist activity, reference agonist at AC80
# Chain of CCR4 (P51679 whole entry): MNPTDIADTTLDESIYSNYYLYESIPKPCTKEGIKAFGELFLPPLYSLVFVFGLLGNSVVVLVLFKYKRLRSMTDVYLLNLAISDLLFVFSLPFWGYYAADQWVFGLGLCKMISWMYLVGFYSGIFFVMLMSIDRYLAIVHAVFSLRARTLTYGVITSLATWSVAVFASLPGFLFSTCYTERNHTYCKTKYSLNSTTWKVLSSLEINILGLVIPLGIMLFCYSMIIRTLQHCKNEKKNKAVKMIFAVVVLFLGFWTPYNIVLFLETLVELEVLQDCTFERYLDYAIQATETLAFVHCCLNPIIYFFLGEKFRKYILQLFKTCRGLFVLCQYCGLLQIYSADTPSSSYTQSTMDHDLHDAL
# Protocol: (§4) Measurement of Calcium Flux on Cells:
# (§5) The experiments were carried out on the FLIPR TETRA® platform from Molecular Devices. After the basal level had been read, the compounds were added to the cells expressing the chemokine receptor of interest and the agonist activity was read at 10 seconds.
# (§6) Each cell line expressing a chemokine receptor was established on the basis of the Chem-1 cell stably expressing the recombinant form of the chemokine receptor and also an associated G protein, with the aim of coupling the receptor to the calcium signalling pathway. 21 receptors belonging to the chemokine receptor family (CCRs and CXCRs) were analyzed. All the CXCR2 antagonists were tested in a dose-dependent manner and the concentration corresponding to 50% inhibition of the response was determined (IC50).
# CXCR3 = CXCR3 (Homo sapiens (Human), UniProt P49682); test: as above; format: cell-based; conditions: antagonist activity, reference agonist at AC80
# Chain of CXCR3 (P49682 whole entry): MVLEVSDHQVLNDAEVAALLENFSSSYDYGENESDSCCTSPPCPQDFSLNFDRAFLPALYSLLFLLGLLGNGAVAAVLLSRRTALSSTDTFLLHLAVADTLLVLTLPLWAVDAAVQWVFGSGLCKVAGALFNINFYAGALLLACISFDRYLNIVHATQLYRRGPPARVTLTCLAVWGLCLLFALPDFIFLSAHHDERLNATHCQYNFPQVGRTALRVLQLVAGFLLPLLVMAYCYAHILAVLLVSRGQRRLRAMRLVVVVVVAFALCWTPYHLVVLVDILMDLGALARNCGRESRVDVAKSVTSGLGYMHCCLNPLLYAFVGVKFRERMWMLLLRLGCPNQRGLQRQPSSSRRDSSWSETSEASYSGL
# Protocol: as §4, §5, §6
# [1] = Metabolic stabilities in hepatic microsomes; format: in vitro ADME; conditions: pH 7.4; hepatic microsomes 0.5 mg/ml, compound 1 μM; read-out: Half-life time
# Protocol: Hepatic microsomes (Becton Dickinson) were incubated at a protein concentration of 0.5 mg/ml in the reaction medium.
# The reaction medium of the microsomes was composed of phosphate buffer, pH: 7.4 at 100 mM, of MgCl2 at 100 mM (50/50), of an […] composed of a mixture of […] (NADP) and of glucose-6-phosphate (G6P) at 1 mg/ml and of glucose-6-phosphate dehydroganase (G6PDH) at 4 U/ml. The compounds were tested at 1 μM (0.1% DMSO).
# The samples of incubation medium after addition of the microsomes were taken at times 5, 10, 15, 30 and 60 minutes. At each time, the metabolic reaction was stopped by adding methanol (1 volume incubation medium/3 volumes of methanol). The disappearance of the parent product was measured by LC/MS/MS analysis. The time for which 50% of parent Product disappeared (T½) was calculated from the kinetics of disappearance of the parent product as a function of time.
# [2] = Metabolic stabilities in hepatocytes; format: in vitro ADME; conditions: human hepatocytes, compound 1 μM; read-out: Half-life time
# Protocol: The human hepatocytes were supplied by Biopredic in 24-well plates.
# At each time, the metabolic reaction was stopped by adding methanol (1 volume incubation medium/3 volumes of methanol). The disappearance of the parent product was measured by LC/MS/MS analysis. The time for which 50% (T½) of parent product disappeared was calculated from the kinetics of disappearance of the parent product as a function of time.
# [3] = system: receptors of CXCR1 and CXCR2 type; conditions: pseudo-irreversible dissociation, JPET 322:477-485, 2007; cited from earlier work
# Chain of CXCR2 receptor (P25025 whole entry): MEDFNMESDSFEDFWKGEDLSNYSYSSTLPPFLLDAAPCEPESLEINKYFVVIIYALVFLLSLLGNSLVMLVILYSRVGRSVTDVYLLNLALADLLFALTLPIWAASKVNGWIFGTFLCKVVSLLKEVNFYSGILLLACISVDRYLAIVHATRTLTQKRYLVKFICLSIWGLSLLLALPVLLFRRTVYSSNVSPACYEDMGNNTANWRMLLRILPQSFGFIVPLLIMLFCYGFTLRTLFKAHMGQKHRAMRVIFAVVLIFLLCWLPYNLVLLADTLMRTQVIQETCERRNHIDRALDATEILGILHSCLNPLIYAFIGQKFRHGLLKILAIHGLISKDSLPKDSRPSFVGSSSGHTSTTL
melting point [°C],IC50 (CXCR2 receptor) [nM],IC50 (CXCR1 receptor) [nM],Structure (SMILES),also measured
130 to 132,,,COC(=O)C1CCCCN1C(=O)c1cccc(Nc2c(NC(c3ccc(C)o3)C3(C)COC3)c(=O)c2=O)c1 (stereo not shown),
186 to 188,272,1600,"Cc1ccc(C(Nc2c(Nc3cccc(C(=O)N(C)C)c3O)c(=O)c2=O)C2(CF)COC2)o1 (stereo not shown) [Example 2, 3-(2-{[(3-fluoromethyloxetan-3-yl)-(5-methyl-furan-2-yl)methyl}amino]-3,4-dioxocyclobut-1-enylamino)-2-hydroxy-N,N-dimethylbenzamide]",
162 to 164,100,2410,"Cc1ccc(C(Nc2c(Nc3cccc(C(=O)N4CCC[C@@H]4C(=O)OC(C)(C)C)c3O)c(=O)c2=O)C2(C)COC2)o1 (stereo partly drawn) [Example 7, (R)-1-[2-hydroxy-3-(2-{[(5-methylfuran-2-yl)-(3-methyloxetan-3-yl)methyl]amino}-3,4-dioxocyclobut-1-enylamino)benzoyl]pyrrolidine-2-carboxylic acid tert-butyl ester]",
,37,604,"COC(=O)[C@H]1CCCN1C(=O)c1cccc(Nc2c(N[C@@H](c3ccc(C)o3)C3(C)COC3)c(=O)c2=O)c1O [Example 8, methyl (R)-1-[2-hydroxy-3-(2-{[(R)-(5-methylfuran-2-yl)-(3-methyloxetan-3-yl)methyl]amino}-3,4-dioxocyclobut-1-enylamino)benzoyl]pyrrolidine-2-carboxylate]",IC50 CCR4 (CCR4): IA; IC50 (CXCR3): 240 nM
129 to 131,549,6510,"Cc1ccc(C(Nc2c(Nc3cccc(C(C)O)c3O)c(=O)c2=O)C2(C)COC2)o1 (stereo not shown) [Example 11, 3-[2-hydroxy-3-(1-hydroxyethyl)phenylamino]-4-{[(5-methylfuran-2-yl)-(3-methyloxetan-3-yl)methyl]amino}cyclobut-3-ene-1,2-dione]",
178 to 180,,,"Cc1ccc(C(Nc2c(Nc3cccc4nn[nH]c34)c(=O)c2=O)C2(C)COC2)o1 (stereo not shown) [Example 23, 3-(3H-benzotriazol-4-ylamino)-4-{[(5-methylfuran-2-yl)-(3-methyloxetan-3-yl)methyl]amino}cyclobut-3-ene-1,2-dione]",
162 to 165,,,"Cc1ccc(C(Nc2c(Nc3cccc(C(=O)N(C)C)c3O)c(=O)c2=O)C2(C)CN(C(=O)OC(C)(C)C)C2)o1 (stereo not shown) [Example 26, tert-butyl 3-[[2-(3-dimethylcarbamoyl-2-hydroxyphenylamino)-3,4-dioxo-cyclobut-1-enylamino]-(5-methylfuran-2-yl)methyl]-3-methylazetidine-1-carboxylate]",
,72,650,"COC(=O)CN(C)C(=O)c1cccc(Nc2c(N[C@@H](c3ccc(C)o3)C3(C)COC3)c(=O)c2=O)c1O [Example 51, methyl {[2-hydroxy-3-(2-{[(R)-(5-methylfuran-2-yl)-(3-methyloxetan-3-yl)methyl]amino}-3,4-dioxocyclobut-1-enylamino)benzoyl]methylamino}acetate]",

# Second part, the molecule before the results:
Structure (SMILES),melting point [°C],IC50 (CXCR2 receptor) [nM],IC50 (CXCR1 receptor) [nM],also measured
"Cc1ccc(C(Nc2c(Nc3cccc(C(=O)N(C)C)c3O)c(=O)c2=O)C2(C)COC2)o1 (stereo not shown) [Example 1, 2-hydroxy-N,N-dimethyl-3-(2-{[(5-methylfuran-2-yl)-(3-methyloxetan-3-yl)methyl]amino}-3,4-dioxocyclobut-1-enylamino)benzamide]",196 to 198,,,
"Cc1ccc(C(Nc2c(Nc3cccc(C(=O)O)c3O)c(=O)c2=O)C2(C)COC2)o1 (stereo not shown) [Example 4, 2-hydroxy-3-(2-{[(5-methylfuran-2-yl)-(3-methyloxetan-3-yl)methyl]amino}-3,4-dioxocyclobut-1-enylamino)benzoic acid]",180 to 185,,,
"Cc1ccc(C(Nc2c(Nc3cccc(S(=O)(=O)N(C)C)c3O)c(=O)c2=O)C2(C)COC2)o1 (stereo not shown) [Example 21, 2-hydroxy-N,N-dimethyl-3-(2-{[(5-methylfuran-2-yl)-(3-methyloxetan-3-yl)methyl]amino}-3,4-dioxocyclobut-1-enylamino)benzenesulfonamide]",,257,1440,half-life at 1 μM [1]: 7.7 min
"Cc1cc(C(Nc2c(Nc3cccc(C(=O)N(C)C)c3O)c(=O)c2=O)C2(C)COC2)oc1C (stereo not shown) [Example 27, 3-(2-{[(4,5-dimethylfuran-2-yl)-(3-methyloxetan-3-yl)methyl]amino}-3,4-dioxocyclobut-1-enylamino)-2-hydroxy-N,N-dimethylbenzamide]",207 to 209,244,1540,
"Cc1ccc(C(Nc2c(Nc3cccc(C(=O)N4CCC(O)C4)c3)c(=O)c2=O)C2(C)COC2)o1 (stereo not shown) [Example 31, 3-[3-(3-hydroxypyrrolidine-1-carbonyl)phenylamino]-4-{[(5-methylfuran-2-yl)-(3-methyloxetan-3-yl)methyl]amino}cyclobut-3-ene-1,2-dione]",242 to 245,716,3530,
"COC(=O)[C@@H]1CCCN1C(=O)c1cccc(Nc2c(NC(c3ccc(C)o3)C3(C)COC3)c(=O)c2=O)c1Cl (stereo partly drawn) [Example 46, methyl (S)-1-[2-chloro-3-(2-{[(5-methylfuran-2-yl)-(3-methyloxetan-3-yl)methyl]amino}-3,4-dioxocyclobut-1-enylamino)benzoyl]pyrrolidine-2-carboxylate]",148 to 158,,,
"Cc1ccc([C@H](Nc2c(Nc3cccc(C(=O)N(C)C)c3O)c(=O)c2=O)C2(C)COC2)o1 [Example 50, 2-hydroxy-N,N-dimethyl-3-(2-{[((R)-5-methylfuran-2-yl)-(3-methyloxetan-3-yl)methyl]amino}-3,4-dioxocyclobut-1-enylamino)benzamide]",,,,IC50 (CXCR3): 700 nM
"Cc1ccc([C@H](Nc2c(Nc3ccc(Cl)c(C(=O)N(C)C)c3O)c(=O)c2=O)C2(C)COC2)o1 [Example 52, 6-chloro-2-hydroxy-N,N-dimethyl-3-(2-{[(R)-(5-methylfuran-2-yl)-(3-methyloxetan-3-yl)methyl]amino}-3,4-dioxocyclobut-1-enylamino)benzamide]",,373,897,
"Cc1ccc([C@H](Nc2c(Nc3ccc(Cl)c(S(=O)(=O)N4CCN(C)CC4)c3O)c(=O)c2=O)C2(C)COC2)o1 [Example 53, 3-[4-chloro-2-hydroxy-3-(4-methylpiperazine-1-sulfonyl)phenylamino]-4-{[(R)-(5-methylfuran-2-yl)-(3-methyloxetan-3-yl)methyl]amino}cyclobut-3-ene-1,2-dione]",,30,115,IC50 (CCR4): 450 nM; IC50 (CXCR3): 920 nM; half-life at 1 μM [2]: 186 min; half-life at 1 μM [1]: 47 min
CC[C@@H](Nc1c(Nc2cccc(C(=O)N(C)C)c2O)c(=O)c1=O)c1ccc(C)o1 [SCH-527123],,,,dissociation time [3]: about 22 h

# From patent US9090596B2, “Disubstituted 3,4-diamino-3-cyclobutene-1,2-dione compounds for use in the treatment of chemokine-mediated pathologies” (GALDERMA RESEARCH & DEVELOPMENT, priority 2011, dated 2015)
